{"source": "patent US20250188457A1", "about": "“COMPOSITIONS AND METHODS FOR THE TREATMENT OF GLIOBLASTOMA BY INHIBITION OF THE TFPI2-CD51-STAT6 SIGNALING AXIS” (Northwestern University, priority 2023, published 2025)", "conditions_in_all_cases": "TFPI2 recombinant protein 20 ng/ml; AS1517499 25 nM", "key": {"[1]": {"test_system": "mouse primary CD8+ T cells cocultured with SIM-A9 microglia", "test": "Mouse microglia and CD8+ T cell co-culture, flow cytometry", "type": "cell-based", "experimental": "Primary mouse CD8^+ T cells were isolated from the spleens of C57BL/6 mice using a CD8^+ T cell isolation kit (Miltenyi Biotec, #130-104-075) according to manufacturer's instructions. Isolated CD8^+ T cells were cultured in RPMI 1640 media (Gibco, #22400-089) containing 10% FBS, 50 μM 2-Mercaptoethanol (Sigma, #M7522), and 1:100 antibiotic-antimycotic. Then, primary mouse CD8^+ T cells were expanded by 30 U/ml mouse IL-2 (Miltenyi Biotec, #130-120-662) and activated by Dynabeads® mouse T-activator CD3/CD28 (Gibco, #11456D) at bead-to-cell ratio of 1:1 before analysis and co-culture studies. For membrane protein staining, the single-cell suspensions were washed with PBS and then incubated with fixable viability dye (Invitrogen, #5211229035) on ice for 10 min. Following washing with PBS, cells were incubated with the anti-CD16/CD32 cocktail (BioLegend, #103132) in 2% BSA PBS to block Fc receptors for 30 min on ice. […] Samples were read in BD FACSymphony flow cytometer and analyzed in FlowJo v10.8.1. […] Then cell suspensions were rewashed in permeabilization buffer and read in BD FACSymphony flow cytometer."}, "[2]": {"test_system": "JURKAT T cells cocultured with PrhMG", "test": "Human microglia-T cell co-culture, flow cytometry", "type": "cell-based", "experimental": "For membrane protein staining, the single-cell suspensions were washed with PBS and then incubated with fixable viability dye (Invitrogen, #5211229035) on ice for 10 min. Following washing with PBS, cells were incubated with the anti-CD16/CD32 cocktail (BioLegend, #103132) in 2% BSA PBS to block Fc receptors for 30 min on ice. Different antibody combinations, including Percp/Cy5.5 anti-mouse CD45 (BioLegend, #103132), AF488 anti-mouse CD3 (BioLegend, #100210), BV421 anti-mouse CX3CR1 (BD Bioscience, #567531), BUV395 anti-mouse CD4 (BD Bioscience, #740208), BV711 anti-mouse CD8 (BioLegend, #100747), PE/Cy7 anti-mouse/human CD11b (BioLegend, #101216), PE anti-mouse CD68 (BD Bioscience, #566386), PE anti-mouse PD1 (BioLegend, #135205), AF647 anti-mouse CD206 (BD Bioscience, #565250), AF647 anti-human CD206 (BioLegend, #321116), PE anti-human CD69 (BioLegend, #310906), PE/Cy7 anti-mouse CD69 (BioLegend, #104512), and BV650 anti-human HLA-DR (BioLegend, #307650) were added to cell suspensions for 30 min on ice. […] Samples were read in BD FACSymphony flow cytometer and analyzed in FlowJo v10.8.1. […] Then cell suspensions were rewashed in permeabilization buffer and read in BD FACSymphony flow cytometer."}, "[3]": {"test_system": "CT2A cells and GSC272 cells", "test": "T cell-mediated cytotoxicity assay (LDH release)", "type": "cell-based, human and mouse", "experimental": "T cell-mediated cytotoxicity was determined by Cytotox96 non-radioactive cytotoxicity assay kit (Promega, #G1780) based on the release of lactate dehydrogenase (LDH). After expansion and activation, mouse primary CD8^+ T cells or human JURKAT T cells were collected. About 10^5 T cells were co-cultured with SIM-A9 microglia or PrhMG (1:1 ratio) treated with TFPI2 recombinant protein in the presence or absence of STAT6 inhibitor AS1517499 for 24 hrs. T cells (effector cells) were then collected for further co-culturing with CT2A cells or GSC272 cells (target cells) at different ratios (10000:1000, 5000:1000, 2500:1000, 1250:1000, 620:1000, 310:1000, 160:1000, 80:1000, 40:1000, 20:1000) for 5 hrs. Experimental groups and corresponding control groups, including effector cell spontaneous LDH release, target cell spontaneous LDH release, target cell maximum LDH release, volume correction control, and culture medium background control were set up following the manufacturer's instructions to evaluate T cell-mediated cytotoxicity on GSCs. Optical density (OD) was measured by a Biotek Synergy 2 SL Microplate Reader. The cytotoxicity was calculated by the formula: (experimental OD value-effector spontaneous OD value-target spontaneous OD value)/(target maximum OD value-target spontaneous OD value)."}}}
{"smiles": "NC(=O)c1cnc(NCCc2ccc(O)c(Cl)c2)nc1NCc1ccccc1", "note": "[AS1517499]", "values": [{"measurement": "decrease of CD8+ T cell viability by TFPI2-polarized microglia", "setting": "[1]", "result": "negated"}, {"measurement": "reduction of the percentage of CD8+CD69+ and CD8+IFNγ+ T cells by TFPI2-treated microglia", "setting": "[1]", "result": "prevented"}, {"measurement": "suppression of JURKAT T cell viability and activation by TFPI2-polarized microglia", "setting": "[2]", "result": "prevented"}, {"measurement": "suppression of T cell-mediated tumor cell cytotoxicity by TFPI2-polarized microglia", "setting": "[3]", "result": "rescued"}]}
